Activity calls are given as the source filed them. The rule behind the calls is not given here.
Legend:
PC-12 [1] = assay: Cytotoxicity against rat PC12 cells assessed as reduction in cell viability at 20 uM incubated for 24 hrs by MTT assay; assay type: functional
PC-12 [2] = assay: Neuroprotective activity against NMDA-induced cell injury in rat PC12 cells assessed as cell viability at 20 uM incubated for 24 hrs MTT assay (reference value: 77.1+/- 1.3%); assay type: functional; conditions: for viability at 20 µM: Rattus norvegicus; for Activity: 24 h, 20 µM
PC-12 [3] = assay: Cytotoxicity against rat PC12 cells assessed as reduction in cell viability at 5 uM incubated for 24 hrs by MTT assay; assay type: functional, cell-based
PC-12 [4] = assay: Neuroprotective activity against NMDA-induced cell injury in rat PC12 cells assessed as cell viability incubated for 24 hrs MTT assay; assay type: functional, cell-based; conditions: dose 2.5-20 µM
PC-12 [5] = assay: Neuroprotective activity against NMDA-induced cell injury in rat PC12 cells assessed as cell viability at 2.5 to 20 uM incubated for 24 hrs MTT assay; assay type: functional, cell-based; conditions: dose 2.5-20 µM
[6] = target: T1, Glutamate receptor ionotropic, NMDA 1 (Homo sapiens, UniProt Q05586); assay: Binding affinity to C-terminal GFP-tagged Grin1 NMDA receptor (unknown origin) expressed in HEK293F cells assessed as dissociation constant by MST assay; assay type: cell-based
PC-12 [7] = assay: Neuroprotective activity against NMDA-induced cell injury in rat PC12 cells assessed as cell viability 5 uM incubated for 24 hrs MTT assay; assay type: functional
PC-12 [8] = assay: Neuroprotective activity against NMDA-induced cell injury in rat PC12 cells assessed as cell viability 10 uM incubated for 24 hrs MTT assay; assay type: functional
PC-12 [9] = assay: Effect on cell morphology in NMDA-induced rat PC12 cells assessed as cell shrank at 10 uM pretreated with NMDA for 6 hrs; assay type: functional, cell-based
[10] = target: Glutamate NMDA receptor (Rattus norvegicus) (UniProt P35439+Q00959+Q00960+Q00961+Q62645+Q8VHN2+Q9R1M7); assay: Antagonist activity at NMDA receptor in rat PC12 cells assessed as reduction in NMDA-induced calcium ion influx at 10 uM pretreated with compound for 24 hrs followed by NMDA addition and measured after 6 hrs calcium colorimetric assay; assay type: cell-based; conditions: filed as antagonist, time 30.0 hrs
PC-12 [11] = assay: Induction of apoptosis in NMDA-induced rat PC12 cells assessed as viable cells at 10 uM pretreated with compound for 24 hrs followed by NMDA addition and measured after 6 hrs by Annexin V-FITC/PI staining based flow cytometer analysis (reference value: 46.58%); assay type: functional; conditions: time 30 hrs, read-out: Activity
PC-12 [12] = assay: Induction of apoptosis in NMDA-induced rat PC12 cells assessed as early apoptotic cells at 10 uM pretreated with compound for 24 hrs followed by NMDA addition and measured after 6 hrs by Annexin V-FITC/PI staining based flow cytometer analysis (reference value: 23.33%); assay type: functional; conditions: time 30 hrs
PC-12 [13] = assay: Induction of apoptosis in NMDA-induced rat PC12 cells assessed as late apoptotic cells at 10 uM pretreated with compound for 24 hrs followed by NMDA addition and measured after 6 hrs by Annexin V-FITC/PI staining based flow cytometer analysis (reference value: 22.09 %); assay type: functional; conditions: time 30 hrs
PC-12 [14] = assay: Induction of apoptosis in NMDA-induced rat PC12 cells assessed as necrotic cells at 10 uM pretreated with compound for 24 hrs followed by NMDA addition and measured after 6 hrs by Annexin V-FITC/PI staining based flow cytometer analysis (reference value: 8%); assay type: functional; conditions: time 30 hrs
[15] = target: T1, Glutamate receptor ionotropic, NMDA 1; assay: Binding affinity to C-terminal GFP-tagged NMDA Grin1.M mutant (unknown origin) expressed in HEK293F cells assessed as dissociation constant by MST assay; assay type: cell-based
[16] = PC-12, 24 h, read-out: Activity

O=C1CC(c2ccccc2)C2Cc3ccc(OCc4ccccc4)cc3CN12 (racemic) showed an Activity (PC-12 [1]) greater than 87.9% and a viability at 20 µM (PC-12 [2]; [16]) of 68.5%.

In the case of O=C1CC(c2ccccc2Oc2ccccc2)C2Cc3ccccc3CN12 (racemic; 14l) [listing 1 of 2 here], the Activity (PC-12 [2]) is reported as 76.3%.

Compound O=C1CC(c2ccccc2Oc2ccccc2)C2Cc3ccccc3CN12 (racemic; 13k) has an Activity (PC-12 [1]) of 3.4% and a viability at 20 µM (PC-12 [2]; [16]) of 77.5%.

Work on O=C1CC(c2ccccc2)C2Cc3ccccc3CN12 (racemic; 13a) yielded an Activity (PC-12 [1]) greater than 87.9% and a viability at 20 µM (PC-12 [2]; [16]) of 85.3%.

In the case of O=C1CC(c2cccc3ccccc23)C2Cc3ccccc3CN12 (racemic; 14m), the Activity (PC-12 [2]) is reported as 74%.

O=C1CC(c2ccc(C(F)(F)F)cc2)C2Cc3ccccc3CN12 (racemic; 14h) was tested, and the Activity (PC-12 [2]) was 78.7%.

Work on O=C1CC(c2cccc(Oc3ccccc3)c2)C2Cc3ccccc3CN12 (racemic; 13j) [listing 1 of 2 here] yielded an Activity (PC-12 [1]) of 3.4% and a viability at 20 µM (PC-12 [2]; [16]) of 77.6%.

Compound O=C1CC(c2ccc(Cl)cc2)C2Cc3ccccc3CN12 (racemic) has a viability at 20 µM (PC-12 [2]; [16]) of 77.1%.

For O=C1CC(c2ccccc2Cl)C2Cc3ccccc3CN12 (racemic; 14f), the Activity (PC-12 [2]) was 74.8%.

In the case of Cc1ccc(C2CC(=O)N3Cc4ccccc4CC23)cc1 (racemic; 13i) [listing 1 of 2 here], the Activity (PC-12 [3]) is reported as “Active”.

With Cc1ccc(C2CC(=O)N3Cc4ccccc4CC23)cc1 (racemic; 14j) the Activity (PC-12 [2]) was 82.3%.

In the case of O=C1CC(c2ccccc2)C2Cc3ccc(F)cc3CN12 (racemic), the Activity (PC-12 [1]) is reported as greater than 87.9% and the viability at 20 µM (PC-12 [2]; [16]) is reported as 82.2%.

Work on COc1ccc(C2CC(=O)N3Cc4cc(O)ccc4CC23)cc1 (racemic; 13f) yielded an Activity (PC-12 [1]) greater than 87.9% and a viability at 20 µM (PC-12 [2]; [16]) of 81.7%.

O=C1CC(c2cccc3ccccc23)C2Cc3ccccc3CN12 (racemic; 13l) was tested, and the viability at 20 µM (PC-12 [2]; [16]) was 74.2%.

For O=C1C[C@H](c2cccc(OCc3ccccc3)c2)[C@H]2Cc3ccccc3CN12, the Activity (PC-12 [4]) was “Dose-Dependent Effect”, the Activity (PC-12 [5]) was “Active” and the Kd [6] was 162 nM.

O=C1CC(c2ccc(F)cc2)C2Cc3ccccc3CN12 (racemic; 14e) was tested, and the Activity (PC-12 [2]) was 88.1%.

Compound O=C1CC(c2ccccc2)C2Cc3ccc(O)cc3CN12 (racemic) has an Activity (PC-12 [1]) greater than 87.9% and a viability at 20 µM (PC-12 [2]; [16]) of 82.4%.

With O=C1CC(c2ccc(C(F)(F)F)cc2)C2Cc3ccccc3CN12 (racemic; 13g) the viability at 20 µM (PC-12 [2]; [16]) was 85.6%.

O=C1CC(c2ccccc2Cl)C2Cc3ccccc3CN12 (racemic; 13e) showed an Activity (PC-12 [1]) greater than 87.9% and a viability at 20 µM (PC-12 [2]; [16]) of 77.9%.

With O=C1CC(c2cccc(OCc3ccccc3)c2)C2Cc3ccccc3CN12 (racemic) the Activity (PC-12 [1]) was greater than 87.9%, the viability at 20 µM (PC-12 [2]; [16]) was 94.4% and the Activity (PC-12 [4]) was “Dose-Dependent Effect”. The Activity (PC-12 [7]) was 93.1%, the Activity (PC-12 [8]) was 92.7% and the Activity (PC-12 [9]) was “Active”. For the same compound, the Activity [10] was “Active”, the viability at 10 µM (PC-12 [11]) was 59.6% and the Activity (PC-12 [12]) was 15.6%. It also gave an Activity (PC-12 [13]) of 17.88%, an Activity (PC-12 [14]) of 6.94% and a Kd [6] of 496 nM. It also gave a Kd [15] of 4250 nM.

O=C1CC(c2cccc(Oc3ccccc3)c2)C2Cc3ccccc3CN12 (racemic; 14k) [listing 1 of 2 here] showed an Activity (PC-12 [2]) of 72.3%.

In the case of O=C1CC(c2cccc(Oc3ccccc3)c2)C2Cc3ccccc3CN12 (racemic; 14k) [listing 2 of 2 here], the Activity (PC-12 [3]) is reported as “Active”.

With O=C1C[C@@H](c2cccc(OCc3ccccc3)c2)[C@@H]2Cc3ccccc3CN12 the Activity (PC-12 [4]) was “Dose-Dependent Effect”, the Activity (PC-12 [5]) was “Active” and the Kd [6] was 370 nM.

O=C1CC(c2ccc(F)cc2)C2Cc3ccccc3CN12 (racemic; 13d) was tested, and the Activity (PC-12 [1]) was greater than 87.9% and the viability at 20 µM (PC-12 [2]; [16]) was 90.6%.

O=C1CC(c2cccc(O)c2)C2Cc3ccccc3CN12 (racemic) was tested, and the Activity (PC-12 [1]) was greater than 87.9% and the viability at 20 µM (PC-12 [2]; [16]) was 78.4%.

For O=C1CC(c2cccc(Oc3ccccc3)c2)C2Cc3ccccc3CN12 (racemic; 13j) [listing 2 of 2 here], the Activity (PC-12 [3]) was “Active”.

COc1ccc(C2CC(=O)N3Cc4cc(O)ccc4CC23)cc1 (racemic; 14g) gave an Activity (PC-12 [2]) of 75.2%.

With C[C@]12N[C@H](Cc3ccccc31)c1ccccc12 [DIZOCILPINE] the viability at 20 µM (PC-12 [2]; PC-12, read-out: Activity) was 95.1%, the Activity (PC-12 [9]) was “Active” and the Activity [10] was “Active”. For the same compound, the viability at 10 µM (PC-12 [11]) was 70.9%, the Activity (PC-12 [12]) was 10.22% and the Activity (PC-12 [13]) was 12.12%. For the same compound, the Activity (PC-12 [14]) was 6.81%.

In the case of Cc1ccc(C2CC(=O)N3Cc4ccccc4CC23)cc1 (racemic; 13i) [listing 2 of 2 here], the viability at 20 µM (PC-12 [2]; [16]) is reported as 77%.

In the case of O=C1CC(c2ccccc2Oc2ccccc2)C2Cc3ccccc3CN12 (racemic; 14l) [listing 2 of 2 here], the Activity (PC-12 [3]) is reported as “Active”.

For O=C1CC(c2ccccc2)C2Cc3ccccc3CN12 (racemic; 14a), the Activity (PC-12 [2]) was 85%.

Source: ChEMBL document CHEMBL5620425, “Design, synthesis and evaluation of novel 1-phenyl-pyrrolo[1,2-b]isoquinolin-3-one derivatives as antagonists for the glycine binding site of the NMDA receptor” (Eur J Med Chem, 2023)
